The assay concerns the target CAD protein (Mesocricetus auratus). Briefly: Compound ability to inhibit the catalytic activity of hamster Dihydroorotase (DHOase) expressed in Escherichia coli.

Several values for one entry are separate records, joined by “and”; a condition that tells them apart may be missing. Equal values may be shown once.

The Ki is the dissociation constant of the complex between target and ligand, obtained from inhibition or displacement.

Regarding `O=C1CP(O)(S)=C[C@@H](C(=O)O)N1` (stereo partly drawn) [(2R,4S)-4-Mercapto-4,6-dioxo-4lambda*5*-[1,4]azaphosphinane-2-carboxylic acid], the Ki is 2.9 µM and 3.1 µM.

In turn, `O=C1CP(O)(O)=CC(C(=O)O)N1` (configuration not stated) [4-Hydroxy-4,6-dioxo-4lambda*5*-[1,4]azaphosphinane-2-carboxylic acid] registered a Ki of 4 µM.

Source of the values: BindingDB's records for doi:10.1021/jm970814z (University of Sydney, 1998).
